# Where two headings read alike, the source gives them in different places.
# How the values were obtained:
# [1] = molecular target: T1, rhinovirus 3C protease from HRV serotype-14 (Human rhinovirus 14, UniProt P03303); experiment: Inhibition of rhinovirus 3C protease (FRET assay), serotype 14; type: biochemical; settings: HRV serotype-14 3C protease; progress curves in enzyme start experiments; read-out: Protease Inhibition kobs/[I]
# T1 construct: Recombinant rhinovirus 3C proteases; made in house
# T1 sequence (P03303 1538-1719): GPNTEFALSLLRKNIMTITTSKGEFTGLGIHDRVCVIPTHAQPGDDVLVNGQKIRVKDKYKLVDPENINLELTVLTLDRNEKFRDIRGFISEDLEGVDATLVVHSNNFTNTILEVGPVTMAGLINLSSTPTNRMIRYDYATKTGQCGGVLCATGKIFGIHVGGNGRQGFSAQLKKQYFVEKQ
# Experimental: (§1) Stock solutions (50 mM, in DMSO) of various compounds were prepared; dilutions were in the same solvent. Recombinant rhinovirus 3C proteases (see Birch et al., “Purification of recombinant human rhinovirus 14 3C protease expressed in Escherichia coli,” Protein Expr. Pur. 1995, 6(5), 609-618) from serotypes 14, 16, and 2 were prepared by the following standard chromatographic procedures: (1) ion exchange using Q Sepharose Fast Flow from Pharmacia; (2) affinity chromatography using Affi-Gel Blue from Biorad; and (3) sizing using Sephadex G-100 from Pharmacia. Each assay sample contained 2% DMSO, 50 mM tris pH 7.6, 1 mM EDTA, a test compound at the indicated concentration, approximately 1 μM substrate, and 50-100 nM protease. The kobs/I values were obtained from reactions initiated by addition of enzyme rather than substrate. RVP activity was measured in the fluorescence resonance energy transfer assay. The substrate was (N-terminal) DABCYL-(Gly-Arg-Ala-Val-Phe-Gln-Gly-Pro-Val-Gly)-EDANS. In the uncleaved peptide, the EDANS fluorescence was quenched by the proximal DABCYL moiety. When the peptide was cleaved, the quenching was relieved, and activity was measured as an increase in fluorescence signal. In Table 1, all data are for rhinovirus 3C protease from HRV serotype-14 (produced from the infectious cDNA clone constructed by Dr. Robert Rueckert, Institute for Molecular Virology, University of Wisconsin, Madison, Wis.). […] The data in the column designated kobs/[I] were measured from progress curves in enzyme start experiments.
# [2] = molecular target: T2, rhinovirus 3C protease, serotype 16 (Human rhinovirus 16, UniProt Q82122); experiment: Inhibition of rhinovirus 3C protease (FRET assay), serotype 16; type: biochemical; settings: Rhinovirus Serotype (16) 3C protease; read-out: kobs/I
# T2 construct: Recombinant rhinovirus 3C proteases; made in house
# T2 sequence (Q82122 1511-1693): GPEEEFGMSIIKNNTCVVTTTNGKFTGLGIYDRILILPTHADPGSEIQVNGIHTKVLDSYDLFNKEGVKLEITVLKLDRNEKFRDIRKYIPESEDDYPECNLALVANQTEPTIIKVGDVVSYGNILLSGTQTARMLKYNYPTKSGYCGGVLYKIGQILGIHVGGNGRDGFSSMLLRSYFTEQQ
# Experimental: Stock solutions (50 mM, in DMSO) of various compounds were prepared; dilutions were in the same solvent. Recombinant rhinovirus 3C proteases (see Birch et al., “Purification of recombinant human rhinovirus 14 3C protease expressed in Escherichia coli,” Protein Expr. Pur. 1995, 6(5), 609-618) from serotypes 14, 16, and 2 were prepared by the following standard chromatographic procedures: (1) ion exchange using Q Sepharose Fast Flow from Pharmacia; (2) affinity chromatography using Affi-Gel Blue from Biorad; and (3) sizing using Sephadex G-100 from Pharmacia. Each assay sample contained 2% DMSO, 50 mM tris pH 7.6, 1 mM EDTA, a test compound at the indicated concentration, approximately 1 μM substrate, and 50-100 nM protease. The kobs/I values were obtained from reactions initiated by addition of enzyme rather than substrate. RVP activity was measured in the fluorescence resonance energy transfer assay. The substrate was (N-terminal) DABCYL-(Gly-Arg-Ala-Val-Phe-Gln-Gly-Pro-Val-Gly)-EDANS. In the uncleaved peptide, the EDANS fluorescence was quenched by the proximal DABCYL moiety. When the peptide was cleaved, the quenching was relieved, and activity was measured as an increase in fluorescence signal. […] The data in the column designated kobs/[I] were measured from progress curves in enzyme start experiments.
# [3] = molecular target: T3, rhinovirus 3C protease, serotype 89 (Human rhinovirus A serotype 89, UniProt P07210); experiment: Inhibition of rhinovirus 3C protease (FRET assay), serotype 89; type: biochemical; settings: Rhinovirus Serotype (89) 3C protease; read-out: kobs/I
# T3 construct: Recombinant rhinovirus 3C proteases
# T3 sequence (P07210 1522-1704): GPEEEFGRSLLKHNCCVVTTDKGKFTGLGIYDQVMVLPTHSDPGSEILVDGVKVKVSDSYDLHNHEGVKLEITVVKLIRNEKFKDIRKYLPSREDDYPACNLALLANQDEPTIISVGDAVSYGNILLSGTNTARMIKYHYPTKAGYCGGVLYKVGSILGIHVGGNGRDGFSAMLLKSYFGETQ
# [4] = molecular target: T4, rhinovirus 3C protease, serotype 2 (Human rhinovirus 2, UniProt P04936); experiment: Inhibition of rhinovirus 3C protease (FRET assay), serotype 2; type: biochemical; settings: Rhinovirus Serotype (2) 3C protease; read-out: kobs/I
# T4 construct: Recombinant rhinovirus 3C proteases; made in house
# T4 sequence (P04936 1508-1690): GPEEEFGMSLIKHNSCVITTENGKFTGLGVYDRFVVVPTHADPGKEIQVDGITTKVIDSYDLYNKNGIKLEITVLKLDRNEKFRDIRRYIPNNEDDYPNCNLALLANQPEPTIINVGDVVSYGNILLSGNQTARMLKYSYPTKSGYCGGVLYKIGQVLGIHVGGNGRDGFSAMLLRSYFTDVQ
# Experimental: as §1
# [5] = system: HRV-14; experiment: Antirhinoviral H1-HeLa cell culture assay, HRV-14; type: cell-based, human rhinovirus; settings: Rhinovirus B, HRV14, H1-HeLa, HRV serotype-14, H1-HeLa cells
# Experimental: (§2) In this cell protection assay, the ability of compounds to protect cells against HRV infection was measured by the XTT dye reduction method, which is described in Weislow et al., J. Natl. Cancer Inst. 1989, vol. 81, 577-586.
# (§3) H1-HeLa cells were infected with HRV-14 at a multiplicity of infection (m.o.i.) of 0.13 (virus particles/cell) or mock-infected with medium only. Infected or mock-infected cells were resuspended at 8×10^5 cells per mL, and incubated with appropriate concentrations of the compounds to be tested. Two days later, XTT/PMS was added to test plates and the amount of formazan produced was quantified spectrophotometrically at 450/650 nm. The EC50 value was calculated as the concentration of compound that increased the percentage of formazan production in compound-treated, virus-infected cells to 50% of that produced by compound-free, mock-infected cells. The 50% cytotoxic dose (CC50) was calculated as the concentration of compound that decreased the percentage of formazan produced in compound-treated, mock-infected cells to 50% of that produced by compound-free, mock-infected cells. The therapeutic index (TI) was calculated by dividing the CC50 value by the EC50 value.
# (§4) All strains of human rhinovirus (HRV) for use in this assay were purchased from American Type Culture Collection (ATCC), except for HRV serotype-14 (produced from the infectious cDNA clone constructed by Dr. Robert Rueckert, Institute for Molecular Virology, University of Wisconsin, Madison, Wis.). HRV stocks were propagated and viral assays were performed in H1-HeLa cells (ATCC). Cells were grown in minimal essential medium with 10% fetal bovine serum, available from Life Technologies (Gaithersburg, Md.).
# (§5) The compounds were tested against control compounds WIN 51711, WIN 52084, and WIN 54954 (obtained from Sterling-Winthrop Pharmaceuticals), Pirodavir (obtained from Janssen Pharmaceuticals), and Pleconaril (prepared according to the method described in Diana et al., J. Med. Chem 1995, vol. 38, 1355). Antiviral data obtained for the test compounds are shown in Tables 1 and 3, where all data are for HRV serotype-14 unless otherwise noted in parentheses.
# [6] = system: HRV (89); experiment: Antirhinoviral H1-HeLa cell culture assay, HRV serotype 89; type: cell-based, human rhinovirus; settings: Human rhinovirus sp., H1-HeLa cells, XTT
# Experimental: as §2, §3, §4, §5
# [7] = system: HRV (16); experiment: Antirhinoviral H1-HeLa cell culture assay, HRV serotype 16; type: cell-based; settings: Human rhinovirus sp., H1-HeLa cells, XTT
# Experimental: as §2, §3, §4
# The compounds were tested against control compounds WIN 51711, WIN 52084, and WIN 54954 (obtained from Sterling-Winthrop Pharmaceuticals), Pirodavir (obtained from Janssen Pharmaceuticals), and Pleconaril (prepared according to the method described in Diana et al., J. Med. Chem 1995, vol. 38, 1355). […]
# [8] = system: HRV (10); experiment: Antirhinoviral H1-HeLa cell culture assay, HRV serotype 10; type: cell-based, human rhinovirus; settings: Human rhinovirus sp., H1-HeLa, H1-HeLa cells, XTT
# Experimental: as §2, §3, §4, §5
# [9] = Table 1, XTT dye reduction, read-out: Cell Protection EC50
kinact/KI [1] [M⁻¹ s⁻¹],kinact/KI [2] [M⁻¹ s⁻¹],kinact/KI [3] [M⁻¹ s⁻¹],kinact/KI [4] [M⁻¹ s⁻¹],"EC50 [5, 9] [nM]","EC50 ([5]; Table 3, XTT, read-out: EC50) [nM]",EC50 [6] [nM],EC50 [7] [nM],EC50 [8] [nM],melting point,Compound
25000,6500,3400,2000,610,610,6300,2300,600,–,"CCOC(=O)/C=C/[C@H](CCC(N)=O)NC(=O)[C@H](Cc1ccccc1)NC(=O)[C@H](CC(C)C)NC(=O)OCc1ccccc1 [Comparison Compound #2, Ethyl-3-(Cbz-L-Leu-L-Phe-L-Gln)-E-Propenoate, reference compound]"
62500,16900,–,8000,380,380,–,–,–,240 °C (dec.),"CCOC(=O)/C=C/[C@H](CCC(N)=O)NC(=O)[C@H](Cc1ccccc1)NC(=O)[C@@H](NC(=O)OCc1ccccc1)C(C)C [Comparison Compound #3, Ethyl-3-(Cbz-L-Val-L-Phe-L-Gln)-E-Propenoate]"

# From patent US20060046966A1, “Antipicornaviral compounds and compositions, their pharmaceutical uses, and materials for their synthesis” (Agouron Pharmaceuticals, Inc., priority 1998, published 2006)
